Reference: article PMC8799360, “In Vitro and In Vivo Effect of Xylopic Acid on Cytochrome P450 Enzymes” (Advances in Pharmacological and Pharmaceutical Sciences, 2022)

Tested on: T1, CYP 3A4
T1 construct: liver microsomes from phenobarbitone-pretreated male rats
Assay: fluorometric benzyloxyresorufin (BROD) assay in rat liver microsomes
Format: biochemical

Structure (SMILES)	IC50 [nM]
C=C1[C@@H]2CC[C@H]3[C@]4(C)CCC[C@@](C)(C(=O)O)[C@H]4CC[C@]3(C2)[C@@H]1OC(C)=O [XA, xylopic acid]	1300 ± 10
